Drawing on ChEMBL document CHEMBL1201862, “PubChem BioAssay data set” (2004), this text covers IC50, AC50 and EC50 for eight molecules.

The target of test [1] is Intestinal-type alkaline phosphatase (Mus musculus, UniProt P24822). In words: PubChem AID 488785. In kind it is functional.
In test [2] the target is T1, Alkaline phosphatase, tissue-nonspecific isozyme (Homo sapiens, UniProt P05186).
T1 sequence (P05186 whole entry): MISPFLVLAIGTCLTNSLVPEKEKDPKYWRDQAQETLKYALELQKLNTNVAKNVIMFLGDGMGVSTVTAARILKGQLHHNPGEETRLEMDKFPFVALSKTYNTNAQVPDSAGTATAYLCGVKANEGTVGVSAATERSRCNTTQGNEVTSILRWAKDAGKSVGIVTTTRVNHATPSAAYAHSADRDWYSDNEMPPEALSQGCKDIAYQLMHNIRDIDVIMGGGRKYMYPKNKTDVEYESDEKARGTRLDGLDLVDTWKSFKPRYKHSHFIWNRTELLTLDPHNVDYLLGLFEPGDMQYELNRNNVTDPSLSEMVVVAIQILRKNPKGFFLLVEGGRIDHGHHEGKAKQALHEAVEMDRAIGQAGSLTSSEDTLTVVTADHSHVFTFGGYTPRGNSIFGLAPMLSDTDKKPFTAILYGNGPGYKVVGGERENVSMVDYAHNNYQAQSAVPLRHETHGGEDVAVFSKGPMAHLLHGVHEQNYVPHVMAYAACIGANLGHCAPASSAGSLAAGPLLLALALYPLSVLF
In words: TNAP enzyme inhibition by screening hits, dose response, selectivity assay for mouse IAP inhibitor project, biochemical, human TNAP, uHTS hits (AID 488906). In kind it is functional.

Test [3] has as its target Intestinal-type alkaline phosphatase (Homo sapiens, UniProt P09923). In words: inhibition of human intestinal alkaline phosphatase – biochemical, dose response (AID 488876). Format: functional.
Test [4] can be described thus: Luminescence Cell-Based Dose Retest to Confirm Inhibitors of Cancer Stem Cells. [Related pubchem assays (depositor defined):AID2717, AID2721]. In kind it is functional. The following applies: Homo sapiens.
Test [5] addresses T2, Ubiquitin-conjugating enzyme E2 N (Homo sapiens, UniProt P61088).
T2 sequence (P61088 whole entry): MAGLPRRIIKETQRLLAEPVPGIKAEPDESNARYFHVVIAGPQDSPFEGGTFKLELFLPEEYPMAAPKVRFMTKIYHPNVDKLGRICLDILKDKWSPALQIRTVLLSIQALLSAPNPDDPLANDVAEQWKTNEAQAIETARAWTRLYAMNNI
In kind it is functional.

In test [6] the target is T3, Endoribonuclease toxin MazF (Escherichia coli K-12, UniProt P0AE70).
T3 sequence (P0AE70 whole entry): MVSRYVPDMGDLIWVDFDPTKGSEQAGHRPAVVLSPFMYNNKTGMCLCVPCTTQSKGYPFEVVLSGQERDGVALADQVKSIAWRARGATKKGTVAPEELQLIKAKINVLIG
Briefly: activation of MazEF endoribonuclease cleavage – biochemical, fluorescence, single-stranded RNA substrate, uHTS hits, dose response (AID 588481). In kind it is functional.

For test [7], the target named is T3, Endoribonuclease toxin MazF. In words: substrate-only fluorescence increase artefacts – biochemical, single-stranded RNase substrate, counter-screen for MazEF activator project, dose response (AID 588502). Format: functional. Background: A counterscreen serves to expose hits that act by an unwanted route or on another target.
Test [8] in a line: A549 cell cytotoxicity, dose response, cytotoxicity control, plate reader, cherry-pick, antagonist series (AID 743412). In kind it is functional, cell-based.
Test [9] is described as follows: toxicity toward HepG2 liver cells – cell-based, plate reader, cherry-pick, antagonist series, cytotoxicity control, dose response (AID 743416). In kind it is functional.
Test [10] is described as follows: blockers of bursicon-stimulated LGR2 cAMP reporter – cell-based, HEK293, CRE-luciferase reporter, cherry pick, set 2, dose response (AID 743343).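 Also: transfected cells were stimulated with diluted bursicon conditioned medium after compound addition.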 In kind it is functional. (Reporter assays use an easily measured gene product as a stand-in for the process of interest.)
Test [11] is described as follows: blockade of melanocortin 4 receptor signaling – cell-based, plate reader, cherry pick, counter-screen for LGR2 antagonist project, dose response (AID 743444).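 Also: transfected HEK 293 cells stimulated with alpha-MSH peptide; potency of inhibitors of the alpha-MSH evoked signal.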 Format: functional.
Test [12] can be described thus: viability loss in HEK293 cells – cell-based, plate reader, cherry-picked samples, cytotoxicity control, dose response (AID 743446). Format: functional.
Test [13] deals with T4, Lysine-specific demethylase 4C (Homo sapiens, UniProt Q9H3R0).
T4 sequence (Q9H3R0 whole entry): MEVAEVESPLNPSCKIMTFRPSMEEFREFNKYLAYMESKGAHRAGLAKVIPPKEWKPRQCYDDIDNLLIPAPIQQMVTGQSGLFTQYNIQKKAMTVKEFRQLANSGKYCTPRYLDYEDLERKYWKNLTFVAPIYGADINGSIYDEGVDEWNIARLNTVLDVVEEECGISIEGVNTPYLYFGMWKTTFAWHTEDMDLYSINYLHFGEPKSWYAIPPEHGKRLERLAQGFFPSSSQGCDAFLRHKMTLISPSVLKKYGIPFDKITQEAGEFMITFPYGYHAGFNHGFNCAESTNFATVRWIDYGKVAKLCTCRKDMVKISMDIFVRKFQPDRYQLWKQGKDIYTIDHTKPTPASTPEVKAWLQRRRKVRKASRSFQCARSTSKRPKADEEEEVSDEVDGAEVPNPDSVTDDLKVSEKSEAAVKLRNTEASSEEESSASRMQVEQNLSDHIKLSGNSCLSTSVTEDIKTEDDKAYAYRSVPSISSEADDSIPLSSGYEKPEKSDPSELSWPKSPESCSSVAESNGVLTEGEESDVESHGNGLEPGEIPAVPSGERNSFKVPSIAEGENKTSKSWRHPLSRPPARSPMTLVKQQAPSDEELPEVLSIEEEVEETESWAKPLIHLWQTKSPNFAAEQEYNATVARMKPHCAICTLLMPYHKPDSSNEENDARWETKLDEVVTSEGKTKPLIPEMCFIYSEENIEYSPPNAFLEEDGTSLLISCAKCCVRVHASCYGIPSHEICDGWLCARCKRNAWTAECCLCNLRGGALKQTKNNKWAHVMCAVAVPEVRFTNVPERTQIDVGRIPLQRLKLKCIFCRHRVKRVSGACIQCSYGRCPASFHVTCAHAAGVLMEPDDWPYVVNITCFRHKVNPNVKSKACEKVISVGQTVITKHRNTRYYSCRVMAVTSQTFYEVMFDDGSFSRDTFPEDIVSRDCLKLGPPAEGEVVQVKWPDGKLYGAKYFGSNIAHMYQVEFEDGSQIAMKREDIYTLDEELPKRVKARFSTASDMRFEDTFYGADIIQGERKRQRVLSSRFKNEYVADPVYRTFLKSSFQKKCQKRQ
In words: inhibition of JMJD2C H3K9me3 demethylation – biochemical, DELFIA europium, cherry-picked samples, dose response (AID 488835). Format: functional.

A short description of test [14]: Trypanosoma cruzi growth suppression in host cells – NIH3T3 host cells, beta-gal luminescence, confirmation (AID 2044).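 Also: intracellular parasites grown in NIH/3T3 mouse fibroblasts as host cells; luminescent beta-galactosidase reporter signal from transgenic T. cruzi replicating inside host cells; inhibitors lower the luminescence signal.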 Format: functional, cell-based.
A short description of test [15]: NIH3T3 cell viability loss – ATP luminescence, mouse fibroblasts, counter-screen, dose response (AID 2010).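 Also: cells exposed to compound for about 90 hours before reading.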 Format: functional, cell-based.
The nature of test [16]: viability loss of HMLE_sh_eGFP cells – cell-based, luminescence, counter-screen for HMLE_sh_ECad selective toxicity project, dose response (AID 463074).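 Also: HMLE human mammary epithelial cells expressing control shRNA against eGFP.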 Format: functional, Homo sapiens.
Test [17] has as its system H9c2. Briefly: cells. In kind it is functional, cell-based. The note with it: Rattus norvegicus, H9c2, Myocardium.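 Also: confirmatory concentration-response retest of ultra-high-throughput screening hits for modulation of myocardial damage; cell death induced by hydrogen peroxide oxidative stress; compound pretreatment for 60 min then peroxide exposure for 2 h; potency is for protecting the cells against peroxide damage rather than for killing them.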
Test [18] concerns the target SUMO E1/E2 (Homo sapiens, UniProt P63279+Q9UBE0+Q9UBT2). In words: SAR analysis of SUMOylation using HTRF in an in-Vitro dose response assay. [Related pubchem assays (depositor defined):AID2006, AID2011, AID2018, AID2069, AID2658]. In kind it is functional.
Test [19] concerns the target T5, Hexokinase HKDC1 (Homo sapiens, UniProt Q2TB90).
T5 sequence (Q2TB90 whole entry): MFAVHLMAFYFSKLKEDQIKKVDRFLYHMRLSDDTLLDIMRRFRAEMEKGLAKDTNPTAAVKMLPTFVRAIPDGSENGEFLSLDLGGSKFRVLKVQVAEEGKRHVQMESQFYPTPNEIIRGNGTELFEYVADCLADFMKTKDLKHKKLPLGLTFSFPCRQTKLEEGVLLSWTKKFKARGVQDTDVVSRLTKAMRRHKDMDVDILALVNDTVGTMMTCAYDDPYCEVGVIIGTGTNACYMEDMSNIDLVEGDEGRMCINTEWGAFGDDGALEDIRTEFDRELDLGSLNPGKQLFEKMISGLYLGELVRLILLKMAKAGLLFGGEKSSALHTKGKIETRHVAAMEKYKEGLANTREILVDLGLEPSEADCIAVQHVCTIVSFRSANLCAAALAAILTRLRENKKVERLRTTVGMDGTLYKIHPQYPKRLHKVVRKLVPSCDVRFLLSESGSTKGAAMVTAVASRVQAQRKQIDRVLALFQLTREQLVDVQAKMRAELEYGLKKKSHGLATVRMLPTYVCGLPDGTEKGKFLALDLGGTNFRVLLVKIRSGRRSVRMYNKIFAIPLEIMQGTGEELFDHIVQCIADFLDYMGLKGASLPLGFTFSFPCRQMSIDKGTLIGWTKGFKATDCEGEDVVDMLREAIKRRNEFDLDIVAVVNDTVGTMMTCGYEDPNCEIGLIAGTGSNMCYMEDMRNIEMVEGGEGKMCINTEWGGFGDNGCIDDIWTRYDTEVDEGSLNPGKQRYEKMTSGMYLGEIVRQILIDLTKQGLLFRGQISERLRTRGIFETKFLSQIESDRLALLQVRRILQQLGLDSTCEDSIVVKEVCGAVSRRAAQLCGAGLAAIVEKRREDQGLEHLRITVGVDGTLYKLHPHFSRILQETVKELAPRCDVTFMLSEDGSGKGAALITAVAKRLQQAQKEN
Briefly: activation of HKDC1 glucose phosphorylation – biochemical, W721R variant, dose response (AID 504730). In kind it is functional.

The target of test [20] is Nonstructural protein 1 (Influenza A virus, UniProt Q194T2). In kind it is functional, Influenza A virus (A/California/07/2009(H1N1)).
Nonstructural protein 1, sequence (Q194T2 whole entry): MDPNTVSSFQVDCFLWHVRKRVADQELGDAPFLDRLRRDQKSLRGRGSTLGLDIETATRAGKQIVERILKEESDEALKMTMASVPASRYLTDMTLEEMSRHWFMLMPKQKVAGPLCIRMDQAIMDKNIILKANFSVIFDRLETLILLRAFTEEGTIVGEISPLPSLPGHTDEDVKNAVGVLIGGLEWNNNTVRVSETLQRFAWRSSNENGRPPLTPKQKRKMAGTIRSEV
The target of test [21] is T6, Hexokinase-1 (Homo sapiens, UniProt P19367).
T6 sequence (P19367 whole entry): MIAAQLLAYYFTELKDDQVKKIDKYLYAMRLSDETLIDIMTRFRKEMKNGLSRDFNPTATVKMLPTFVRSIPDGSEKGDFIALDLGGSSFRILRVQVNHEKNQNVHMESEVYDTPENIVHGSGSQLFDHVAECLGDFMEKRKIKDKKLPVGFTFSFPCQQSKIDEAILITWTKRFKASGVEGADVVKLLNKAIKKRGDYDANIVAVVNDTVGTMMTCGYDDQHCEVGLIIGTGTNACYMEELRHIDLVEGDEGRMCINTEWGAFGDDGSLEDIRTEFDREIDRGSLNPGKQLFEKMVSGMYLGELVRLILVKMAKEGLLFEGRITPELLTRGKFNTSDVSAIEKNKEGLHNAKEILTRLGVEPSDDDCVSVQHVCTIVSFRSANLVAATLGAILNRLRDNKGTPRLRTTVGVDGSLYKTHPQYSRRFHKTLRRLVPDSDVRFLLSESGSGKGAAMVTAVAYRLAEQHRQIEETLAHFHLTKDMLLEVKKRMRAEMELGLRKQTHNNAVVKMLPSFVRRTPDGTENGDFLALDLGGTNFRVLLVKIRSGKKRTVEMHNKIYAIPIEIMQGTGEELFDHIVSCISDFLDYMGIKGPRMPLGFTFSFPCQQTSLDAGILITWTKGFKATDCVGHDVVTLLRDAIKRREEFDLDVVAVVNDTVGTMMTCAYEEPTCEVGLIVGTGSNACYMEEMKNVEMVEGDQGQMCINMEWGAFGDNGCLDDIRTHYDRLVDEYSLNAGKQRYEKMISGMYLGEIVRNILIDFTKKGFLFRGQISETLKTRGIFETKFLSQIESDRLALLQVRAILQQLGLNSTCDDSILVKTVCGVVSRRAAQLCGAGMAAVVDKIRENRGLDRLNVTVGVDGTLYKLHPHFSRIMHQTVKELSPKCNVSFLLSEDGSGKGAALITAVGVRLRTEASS
Briefly: HK1 enzyme activation by HKDC1 hits – biochemical, selectivity assay for HKDC1 activator project, dose response (AID 504762). Format: functional.

Test [22] has as its target Heat shock protein HSP 90-alpha (Homo sapiens, UniProt P07900). Format: functional, organism-based.

Calls of active or inactive are those of the source.

Intestinal-type alkaline phosphatase (Homo sapiens, UniProt P09923), sequence (P09923 whole entry): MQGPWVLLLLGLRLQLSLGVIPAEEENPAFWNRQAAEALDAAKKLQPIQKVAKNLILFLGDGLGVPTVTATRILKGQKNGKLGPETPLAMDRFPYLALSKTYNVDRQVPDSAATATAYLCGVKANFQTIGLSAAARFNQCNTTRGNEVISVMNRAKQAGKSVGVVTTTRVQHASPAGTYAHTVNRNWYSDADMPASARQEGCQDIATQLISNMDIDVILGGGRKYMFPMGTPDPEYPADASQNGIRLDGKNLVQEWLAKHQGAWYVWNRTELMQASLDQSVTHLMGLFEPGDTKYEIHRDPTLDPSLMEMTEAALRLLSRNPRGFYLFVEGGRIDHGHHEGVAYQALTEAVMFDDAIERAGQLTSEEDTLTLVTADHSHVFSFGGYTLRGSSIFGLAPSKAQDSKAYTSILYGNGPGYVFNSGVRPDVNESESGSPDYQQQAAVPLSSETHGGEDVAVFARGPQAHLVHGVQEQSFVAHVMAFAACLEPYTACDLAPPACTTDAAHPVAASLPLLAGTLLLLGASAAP
Intestinal-type alkaline phosphatase (Mus musculus, UniProt P24822), sequence (P24822 whole entry): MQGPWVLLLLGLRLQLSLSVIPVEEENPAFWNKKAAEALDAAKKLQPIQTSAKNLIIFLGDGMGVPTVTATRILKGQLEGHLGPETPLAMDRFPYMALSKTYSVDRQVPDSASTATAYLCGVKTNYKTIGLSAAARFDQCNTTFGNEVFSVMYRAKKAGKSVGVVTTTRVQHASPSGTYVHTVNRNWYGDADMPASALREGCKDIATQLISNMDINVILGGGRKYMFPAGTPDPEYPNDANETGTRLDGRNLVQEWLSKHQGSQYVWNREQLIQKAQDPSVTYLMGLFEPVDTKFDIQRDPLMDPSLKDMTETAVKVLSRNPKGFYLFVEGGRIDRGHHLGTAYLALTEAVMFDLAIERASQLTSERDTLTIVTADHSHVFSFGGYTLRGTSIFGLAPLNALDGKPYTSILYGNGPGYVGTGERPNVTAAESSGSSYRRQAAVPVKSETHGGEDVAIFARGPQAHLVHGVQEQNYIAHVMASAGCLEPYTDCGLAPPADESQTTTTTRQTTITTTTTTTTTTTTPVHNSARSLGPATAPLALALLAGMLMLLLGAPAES
SUMO E1/E2, sequence (Q9UBE0 whole entry): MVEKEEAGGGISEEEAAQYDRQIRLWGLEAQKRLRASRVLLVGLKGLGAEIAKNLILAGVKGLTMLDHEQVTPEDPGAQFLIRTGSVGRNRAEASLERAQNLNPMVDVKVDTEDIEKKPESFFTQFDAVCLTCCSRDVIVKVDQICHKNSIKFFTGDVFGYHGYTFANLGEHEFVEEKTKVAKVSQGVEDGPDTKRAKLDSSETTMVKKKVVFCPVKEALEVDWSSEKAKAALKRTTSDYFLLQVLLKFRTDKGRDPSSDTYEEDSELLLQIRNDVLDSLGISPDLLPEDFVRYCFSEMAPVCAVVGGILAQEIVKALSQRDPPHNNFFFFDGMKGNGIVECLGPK
SUMO E1/E2, sequence (Q9UBT2 whole entry): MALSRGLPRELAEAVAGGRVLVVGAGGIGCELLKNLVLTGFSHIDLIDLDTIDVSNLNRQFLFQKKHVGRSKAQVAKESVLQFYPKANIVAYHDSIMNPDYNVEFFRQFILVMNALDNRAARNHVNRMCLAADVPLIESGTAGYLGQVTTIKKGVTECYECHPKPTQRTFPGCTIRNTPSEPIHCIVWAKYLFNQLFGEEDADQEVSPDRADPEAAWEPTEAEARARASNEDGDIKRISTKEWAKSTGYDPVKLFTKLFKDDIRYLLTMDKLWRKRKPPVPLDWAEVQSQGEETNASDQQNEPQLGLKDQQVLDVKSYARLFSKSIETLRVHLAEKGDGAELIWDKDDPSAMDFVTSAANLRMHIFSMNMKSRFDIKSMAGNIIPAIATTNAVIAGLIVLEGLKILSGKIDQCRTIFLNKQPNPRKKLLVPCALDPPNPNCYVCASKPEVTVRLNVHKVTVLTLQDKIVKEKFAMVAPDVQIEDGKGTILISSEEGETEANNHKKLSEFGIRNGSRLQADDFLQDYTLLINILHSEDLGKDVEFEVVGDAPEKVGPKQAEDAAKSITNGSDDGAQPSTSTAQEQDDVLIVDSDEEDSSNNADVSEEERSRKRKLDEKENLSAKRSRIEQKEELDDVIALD
SUMO E1/E2, sequence (P63279 whole entry): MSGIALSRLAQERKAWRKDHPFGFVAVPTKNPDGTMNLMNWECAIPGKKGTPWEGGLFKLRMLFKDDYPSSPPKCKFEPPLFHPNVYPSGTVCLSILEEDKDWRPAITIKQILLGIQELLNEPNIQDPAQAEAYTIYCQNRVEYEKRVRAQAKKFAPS

`Cc1ccc(NC(=S)NCc2ccccc2)cc1S(=O)(=O)N1CCCCC1`: the 50% inhibitory concentration (IC50) (usually the concentration needed to halve the response being measured) was 1.4 µM (active) in test [1], > 100 µM (inactive) in test [2] and > 100 µM (inactive) in test [3].

With `O=C(Nc1ccc(Cl)c(C(F)(F)F)c1)NC1CC2CCCC(C1)N2Cc1ccccc1` (stereo not drawn), the concentration at half-maximal activity (AC50) (in general, the concentration at which the activity in the assay is half-maximal) in test [4] is 6.55 µM (active); in test [8] it was 11.4 µM (active); in test [9], 12.6 µM (active); in test [10], 39 µM (active); in test [11] it was 33.5 µM (active); in test [12] it was 29.6 µM (active). Moreover, the IC50 in [5] was > 20 µM (inactive); in test [1], 11.2 µM (active); in [2], > 100 µM (inactive); in test [3], > 100 µM (inactive). Moreover, the EC50 in [6] and in test [7] was > 99 µM (inactive) in each case.

In the case of `CN1C(=O)C(=Cc2ccc(N3CCCCCC3)cc2)C(=O)N(C)C1=O`, the AC50 in test [13] was 13.1 µM (active).

Turning to `COc1ccc(C(=O)CCN2CCN(c3ccccc3F)CC2)cc1`, the EC50 (commonly the concentration giving half of the maximal effect) in test [14] is 2.19 µM (active); in [15] it was 7.83 µM (active). In addition, the AC50 in test [4] was 17.2 µM (active); in test [16], 35.3 µM (active).

With `COc1ccc(-c2nn3c(-c4ccco4)nnc3s2)cc1OC`, the half-maximal activity concentration (AC50) in test [13] was 10.3 µM (active). Moreover, in test [17], the concentration for half-maximal inhibition (IC50) is 11.2 µM (active).

For the molecule `C/C(=N\OCc1nc2ccccc2c(=O)n1/N=C/c1cc(Br)ccc1O)c1ccccc1`, the IC50 in [18] is 14.7 µM (active).

Consider `CC(=NNC(=S)N1CC2CCC(CC2)C1)c1ccncn1`, for which the EC50 in test [19] is 13.3 µM (active); in test [21], > 80 µM (inactive). The half-inhibitory concentration (IC50) in [20] was 3.98 µM (active). Further, the AC50 in test [22] was 3.03 µM (active).

As for `O=C(O)c1ccc2c(c1)C1C=CCC1C(c1ccccc1)N2` (stereo not drawn), in test [18], the IC50 is > 100 µM (inactive).
